Measurements as given in PMC11823630, “In vitro potentiation of tetracyclines in Pseudomonas aeruginosa by RW01, a new cyclic peptide” (Antimicrobial Agents and Chemotherapy, 2024).
In brackets after ≈: the same amount, converted by molar mass. Read-outs that look alike come from different tables or passages of the source.

How the values were obtained:
[1] = tested on: PAO1 mutant MIN16_1, nalD(T43P); assay: MIC, E-test on MHA; assay type: cell-based; settings: Pseudomonas aeruginosa, PAO1, read-out: MIC, E-test
[2] = tested on: PAO1 mutant MIN16_3, nfxB(nt79∆14), pilB(N349K); assay: MIC, E-test on MHA; assay type: cell-based; settings: Pseudomonas aeruginosa, PAO1, read-out: MIC, E-test
[3] = tested on: PAO1 mutant MIN4_RW01_2, pmrB(F124S); assay: MIC, E-test on MHA; assay type: cell-based; settings: Pseudomonas aeruginosa, PAO1, read-out: MIC, E-test
[4] = tested on: PAO1 mutant MIN1_RW01_3, pmrB(V215L); assay: MIC, E-test on MHA; assay type: cell-based; settings: Pseudomonas aeruginosa, PAO1, read-out: MIC, E-test
[5] = tested on: P. aeruginosa PAOΔmexR; assay: MIC, CLSI broth microdilution in BD Phoenix AST Broth; assay type: cell-based, Pseudomonas aeruginosa; settings: strain PAOΔmexR
[6] = tested on: P. aeruginosa PAOUW∆oprF; assay: as above; assay type: cell-based, Pseudomonas aeruginosa
[7] = tested on: P. aeruginosa 41A; assay: as above; assay type: cell-based, Pseudomonas aeruginosa; settings: strain 41A
[8] = tested on: P. aeruginosa PAOUW; assay: as above; assay type: cell-based, Pseudomonas aeruginosa; settings: strain PAOUW; for MIC: agent alone, 37°C, 18–22 h, three biological replicates
[9] = tested on: P. aeruginosa PAOΔoprM; assay: as above; assay type: cell-based, Pseudomonas aeruginosa
[10] = tested on: P. aeruginosa 125A; assay: as above; assay type: cell-based, Pseudomonas aeruginosa; settings: strain 125A
[11] = tested on: P. aeruginosa PAOΔmexZ; assay: as above; assay type: cell-based, Pseudomonas aeruginosa; settings: strain PAOΔmexZ; for MIC: agent alone, 37°C, 18–22 h, three biological replicates
[12] = tested on: P. aeruginosa PAO1; assay: as above; assay type: cell-based, Pseudomonas aeruginosa; settings: for MIC: Pseudomonas aeruginosa
[13] = tested on: P. aeruginosa 125B; assay: as above; assay type: cell-based, Pseudomonas aeruginosa; settings: strain 125B
[14] = tested on: P. aeruginosa 41B; assay: as above; assay type: cell-based, Pseudomonas aeruginosa; settings: strain 41B
[15] = tested on: PAO1 mutant MIN2_RW01_4, pmrB(M292T); assay: MIC, E-test on MHA; assay type: cell-based; settings: Pseudomonas aeruginosa, PAO1, read-out: MIC, E-test
[16] = tested on: P. aeruginosa PAOUW; assay: Checkerboard assay with RW01; assay type: cell-based, Pseudomonas aeruginosa
Method: (§1) To assess the in vitro interaction between RW01 and tetracyclines, the checkerboard assay method was performed in 96-well microtiter plates using strains PAO1 and PAOUW. In the same way as for MIC determination, BD Phoenix AST Broth (Becton Dickinson) medium was used for bacterial growth. Minocycline and tigecycline combined with RW01 were the agents selected for the assay. A column and a row of wells in the checkerboard plate were reserved for controls of each antimicrobial individually to ensure the proper concentration of the agents. Positive and negative controls were also included. Wells in rows contained serial dilutions of RW01 starting from 512 mg/L, while those in columns varied in concentrations of the antibiotic. Inoculum at ~5 × 10⁵ CFU/mL, antibiotic, RW01, and AST broth were added to a final volume of 200 µL. Plates were incubated at 37°C for 18–22 h under aerobic conditions. Three biological replicates were obtained. Fractional inhibitory concentration index (FICI) is defined as the summatory of fractional inhibitory concentrations (FICs) from compound A: RW01, and compound B: minocycline/tigecycline. FICs were calculated as:
(§2) FIC of RW01 (FICRW01)=MIC of RW01 in combination/MIC of RW01 alone,FIC of antibiotic (FICATB)=MIC of ATB in combination/MIC of ATB alone,FICI=FICRW01 +FICATB.
(§3) FICI was interpreted as follows: synergistic effect if FICI is ≤0.5; additive effect if 0.5 < FICI ≤ 1.0; indifferent effect if 1.0 < FICI ≤ 2.0; and finally, antagonistic effect if FICI is >2.0. The average FICI considering the antibiotic MIC (no growth in any of the replicates) at different concentrations of RW01 was calculated ([28]).

[17] = tested on: P. aeruginosa PAO1; assay: Checkerboard assay with RW01; assay type: cell-based, Pseudomonas aeruginosa
Method: as §1, §2, §3

[18] = tested on: PAO1 mutant MIN1_RW01_2, mexR(G58E), pilB(G326D), hutC(Y181X); assay: MIC, E-test on MHA; assay type: cell-based; settings: Pseudomonas aeruginosa, PAO1, read-out: MIC, E-test
[19] = tested on: PAO1 mutant MIN1_RW01_4, pmrB(F124L); assay: MIC, E-test on MHA; assay type: cell-based; settings: Pseudomonas aeruginosa, PAO1, read-out: MIC, E-test
[20] = MIC of the antibiotic with fixed 100 mg/L RW01
[21] = antibiotic MIC alone vs with RW01 100 mg/L
[22] = antibiotic with RW01 at 100 mg/L
[23] = strain PAOUWΔoprF (printed PAOΔoprF), antibiotic with RW01 at 100 mg/L
[24] = Pseudomonas aeruginosa, agent alone, 37°C, 18–22 h, three biological replicates
[25] = strain PAOΔoprM, antibiotic with RW01 at 100 mg/L
[26] = strain PAO1, antibiotic with RW01 at 100 mg/L
[27] = antibiotic combined with RW01, checkerboard, AST broth, 37°C, 18–22 h, three biological replicates

SMILES: CN(C)c1cc(NC(=O)CNC(C)(C)C)c(O)c2c1C[C@H]1C[C@H]3[C@H](N(C)C)C(O)=C(C(N)=O)C(=O)[C@@]3(O)C(O)=C1C2=O [Tigecycline, tigecycline]
- MIC [1]: 16 µg/mL (≈ 27.3 µM)
- MIC [2]: 48 µg/mL (≈ 82 µM)
- MIC [3]: 16 µg/mL (≈ 27.3 µM)
- MIC [4]: 16 µg/mL (≈ 27.3 µM)
- Antibiotic MIC + RW01 100 mg/L [5, 20]: 1 µg/mL
- Potentiation (fold) [5, 21]: 8 fold
- FICI [5, 22]: 0.223
- FICI-determined effect [5, 22]: Synergy (synergistic effect if FICI is ≤0.5)
- Potentiation (fold) ([6]; strain PAOUWΔoprF (printed PAOΔoprF), antibiotic MIC alone vs with RW01 100 mg/L): 8 fold
- FICI [6, 23]: 0.223
- FICI-determined effect [6, 23]: Synergy (synergistic effect if FICI is ≤0.5)
- MIC ([6]; strain PAOUWΔoprF, agent alone, 37°C, 18–22 h, three biological replicates): 16 µg/mL
- MIC [7, 24]: 8 µg/mL
- Antibiotic MIC + RW01 100 mg/L [7, 20]: 2 µg/mL
- Potentiation (fold) [7, 21]: 4 fold
- FICI [7, 22]: 0.348
- FICI-determined effect [7, 22]: Synergy (synergistic effect if FICI is ≤0.5)
- MIC ([8]; Pseudomonas aeruginosa, read-out: MIC): 8 µg/mL
- Antibiotic MIC + RW01 100 mg/L [8, 20]: 1 µg/mL
- MIC [8]: 4 µg/mL
- Potentiation (fold) [8, 21]: 4 fold
- FICI [8, 22]: 0.348
- FICI-determined effect [8, 22]: Synergy (synergistic effect if FICI is ≤0.5)
- MIC ([9]; Pseudomonas aeruginosa): 1 µg/mL
- Antibiotic MIC + RW01 100 mg/L ([9]; strain PAOΔoprM, MIC of the antibiotic with fixed 100 mg/L RW01): 1 µg/mL
- Potentiation (fold) ([9]; strain PAOΔoprM, antibiotic MIC alone vs with RW01 100 mg/L): 1 fold
- FICI [9, 25]: 1.098
- FICI-determined effect [9, 25]: Indifference (indifferent effect if 1.0 < FICI ≤ 2.0)
- MIC [10, 24]: 8 µg/mL
- Antibiotic MIC + RW01 100 mg/L [10, 20]: 1 µg/mL
- Potentiation (fold) [10, 21]: 8 fold
- FICI [10, 22]: 0.320
- FICI-determined effect [10, 22]: Synergy (synergistic effect if FICI is ≤0.5)
- MIC ([11]; Pseudomonas aeruginosa): 16 µg/mL
- MIC [11]: 8 µg/mL
- Potentiation (fold) [11, 21]: 8 fold
- FICI [11, 22]: 0.223
- FICI-determined effect [11, 22]: Synergy (synergistic effect if FICI is ≤0.5)
- MIC ([12]; PAO1): 8 µg/mL
- MIC ([12]; PAO1, strain PAO1, agent alone, 37°C, 18–22 h, three biological replicates, read-out: MIC): 2 µg/mL
- Antibiotic MIC + RW01 100 mg/L ([12]; strain PAO1, MIC of the antibiotic with fixed 100 mg/L RW01): 2 µg/mL
- Potentiation (fold) ([12]; strain PAO1, antibiotic MIC alone vs with RW01 100 mg/L): 4 fold
- FICI [12, 26]: 0.445
- FICI-determined effect [12, 26]: Synergy (synergistic effect if FICI is ≤0.5)
- MIC [13, 24]: 8 µg/mL
- Antibiotic MIC + RW01 100 mg/L [13, 20]: 1 µg/mL
- Potentiation (fold) [13, 21]: 8 fold
- FICI [13, 22]: 0.320
- FICI-determined effect [13, 22]: Synergy (synergistic effect if FICI is ≤0.5)
- MIC [14, 24]: 8 µg/mL
- Antibiotic MIC + RW01 100 mg/L [14, 20]: 2 µg/mL
- Potentiation (fold) [14, 21]: 4 fold
- FICI [14, 22]: 0.348
- FICI-determined effect [14, 22]: Synergy (synergistic effect if FICI is ≤0.5)
- MIC [15]: 16 µg/mL (≈ 27.3 µM)
- interaction with RW01 (checkerboard) [16]: synergistic
- average FIC Index [16, 27]: 0.446
- interaction with RW01 (checkerboard) [17]: additive
- average FIC Index [17, 27]: 0.677
- MIC [18]: 32 µg/mL (≈ 54.6 µM)
- MIC [19]: 24 µg/mL (≈ 41 µM)
